Results from US12173018B2, “Penicillin-binding protein inhibitors” (priority 2018, dated 2024).
In brackets after ≈: the same amount, converted by molar mass. Where two headings read alike, the source gives them in different places.

Legend:
K. pneumoniae 848844 = experiment: microbe, parasite or virus in culture; assay type: cell-based, Klebsiella pneumoniae; settings: Klebsiella pneumoniae; K. pneumoniae 848844 producing SHV-11 and KPC-2; read-out: MIC K. pneumoniae 848844
Method in brief: (§1)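 Broth microdilution MICs followed CLSI methods in cation-supplemented Mueller-Hinton broth, with 2-fold serial compound dilutions. Log-phase cultures grown 3–5 h were added to a starting inoculum of 5×10^5 CFU/mL and incubated 16–20 h at 37 °C. The MIC was read visually as the lowest concentration with no growth.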

N. gonorrhoeae WHO F = experiment: Liquid broth MIC, N. gonorrhoeae WHO F; assay type: cell-based; settings: Neisseria gonorrhoeae, read-out: Minimum Inhibitory Concentration, N. gonorrhoeae WHO F
Method in brief: (§2)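 Broth microdilution in wild-type strains: colonies from GC agar with 1% Kellogg's supplement suspended in GC broth, inoculated at 5×10^5 CFU/mL into 2-fold compound dilutions. Plates incubated 40-42 hours at 36° C., 5% CO2; MIC read visually as lowest concentration with no growth.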

E. coli PBP3 = E. coli PBP3 (Escherichia coli (strain K12), UniProt P0AD68); experiment: E. coli PBP3 Bocillin-FL fluorescence polarization competition binding assay
Method in brief: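 Purified E. coli PBP (1.5 μM final) competed with inhibitor (0-1000 μM) for Bocillin-FL (0.1 μM final) in 50 mM Hepes pH 8.0, 300 mM NaCl, 5% glycerol. Fluorescence polarization (ex 490/em 520 nm) was read continuously for 60 min after Bocillin-FL addition. EC50 was the concentration that reduced Bocillin-FL binding by 50%.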

N. gonorrhoeae FA1090 = experiment: Liquid broth MIC, N. gonorrhoeae FA1090; assay type: cell-based; settings: Neisseria gonorrhoeae
Method in brief: as §2

N. gonorrhoeae FA19 = experiment: Liquid broth MIC, N. gonorrhoeae FA19; assay type: cell-based; settings: Neisseria gonorrhoeae
Method in brief: as §2

E. coli ATCC 25922 = experiment: Broth microdilution MIC, E. coli ATCC 25922; assay type: cell-based; settings: Escherichia coli
Method in brief: as §1

[1] = N. gonorrhoeae WHO F, liquid broth
[2] = fluorescence polarization competition binding with Bocillin-FL, read-out: E. coli K12 PBP3 Potency
[3] = N. gonorrhoeae FA1090, liquid broth, read-out: Minimum Inhibitory Concentration, N. gonorrhoeae FA1090
[4] = N. gonorrhoeae FA19, liquid broth, read-out: Minimum Inhibitory Concentration, N. gonorrhoeae FA19
[5] = ATCC25922, read-out: MIC E. coli 25922
[6] = ATCC25922, E. coli ATCC 25922, broth microdilution, read-out: MIC E. coli 25922

Sequence of E. coli PBP3 (P0AD68 whole entry): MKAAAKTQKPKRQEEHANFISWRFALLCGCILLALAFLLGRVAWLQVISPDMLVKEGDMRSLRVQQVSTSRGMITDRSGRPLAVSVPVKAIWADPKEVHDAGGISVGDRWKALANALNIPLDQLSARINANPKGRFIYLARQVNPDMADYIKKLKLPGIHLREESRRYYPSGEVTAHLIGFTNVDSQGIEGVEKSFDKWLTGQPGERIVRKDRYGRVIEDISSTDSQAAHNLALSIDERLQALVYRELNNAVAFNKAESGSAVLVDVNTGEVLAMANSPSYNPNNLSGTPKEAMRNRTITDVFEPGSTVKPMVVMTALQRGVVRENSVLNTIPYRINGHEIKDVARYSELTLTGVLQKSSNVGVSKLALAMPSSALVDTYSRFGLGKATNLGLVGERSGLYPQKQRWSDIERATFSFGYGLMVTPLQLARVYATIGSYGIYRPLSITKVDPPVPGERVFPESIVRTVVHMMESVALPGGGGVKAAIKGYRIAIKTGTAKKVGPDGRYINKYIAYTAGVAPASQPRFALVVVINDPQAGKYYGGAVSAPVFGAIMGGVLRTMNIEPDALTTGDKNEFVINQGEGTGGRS

Compound	MIC (K. pneumoniae 848844)	MIC (N. gonorrhoeae WHO F; [1])	EC50 (E. coli PBP3; [2])	MIC (N. gonorrhoeae FA1090; [3])	MIC (N. gonorrhoeae FA19; [4])	MIC (E. coli ATCC 25922; [5])	EC50 (E. coli PBP3)	MIC (E. coli ATCC 25922; [6])	MIC (N. gonorrhoeae WHO F)	MIC (N. gonorrhoeae FA1090; FA1090, read-out: Minimum Inhibitory Concentration, N. gonorrhoeae FA1090)	MIC (N. gonorrhoeae FA19; FA19, read-out: Minimum Inhibitory Concentration, N. gonorrhoeae FA19)
CCN1CCN(C(=O)NC(C(=O)N[C@H]2Cc3cccc(C(=O)O)c3OB2O)c2ccc(C(=O)O)cc2)C(=O)C1=O (stereo partly drawn) [Example 212, (3R)-3-(2-(4-carboxyphenyl)-2-(4-ethyl-2,3-dioxopiperazine-1-carboxamido)acetamido)-2-hydroxy-3,4-dihydro-2H-benzo[e][1,2]oxaborinine-8-carboxylic acid]	> 128 µg/mL	< 0.125 µg/mL	< 30 µM	< 0.125 µg/mL	0.25 to 0.5 µg/mL (≈ 0.453 to 0.905 µM)	32 to 64 µg/mL	–	–	–	–	–
O=C(O)c1cccc2c1OB(O)[C@@H](NC(=O)C(NC(=O)N1CCN(CCF)C(=O)C1=O)c1ccc(S(=O)(=O)NCCO)cc1)C2 (stereo partly drawn) [Example 213, (3R)-3-(2-(4-(2-fluoroethyl)-2,3-dioxopiperazine-1-carboxamido)-2-(4-(N-(2-hydroxyethyl)sulfamoyl)phenyl)acetamido)-2-hydroxy-3,4-dihydro-2H-benzo[e][1,2]oxaborinine-8-carboxylic acid]	> 128 µg/mL	0.25 to 0.5 µg/mL (≈ 0.385 to 0.77 µM)	–	0.25 to 0.5 µg/mL (≈ 0.385 to 0.77 µM)	16 to 32 µg/mL (≈ 24.6 to 49.3 µM)	–	30 to 500 µM	> 128 µg/mL	–	–	–
CCN1CCN(C(=O)NC(C(=O)N[C@H]2Cc3ccc(Cl)c(C(=O)O)c3OB2O)c2ncc(O)cc2F)C(=O)C1=O (stereo partly drawn) [Example 216, (3R)-7-chloro-3-(2-(4-ethyl-2,3-dioxopiperazine-1-carboxamido)-2-(3-fluoro-5-hydroxypyridin-2-yl)acetamido)-2-hydroxy-3,4-dihydro-2H-benzo[e][1,2]oxaborinine-8-carboxylic acid]	32 to 64 µg/mL	< 0.125 µg/mL	< 30 µM	0.25 to 0.5 µg/mL (≈ 0.433 to 0.865 µM)	1 to 2 µg/mL (≈ 1.73 to 3.46 µM)	–	–	32 to 64 µg/mL	–	–	–
CCN1CCN(C(=O)NC(C(=O)N[C@H]2Cc3ccc(Cl)c(C(=O)O)c3OB2O)c2ccc(O)c(O)c2Cl)C(=O)C1=O (stereo partly drawn) [Example 217, (3R)-7-chloro-3-(2-(2-chloro-3,4-dihydroxyphenyl)-2-(4-ethyl-2,3-dioxopiperazine-1-carboxamido)acetamido)-2-hydroxy-3,4-dihydro-2H-benzo[e][1,2]oxaborinine-8-carboxylic acid]	2 to 4 µg/mL	0.25 to 0.5 µg/mL (≈ 0.41 to 0.821 µM)	–	1 to 2 µg/mL (≈ 1.64 to 3.28 µM)	4 to 8 µg/mL (≈ 6.57 to 13.1 µM)	–	30 to 500 µM	8 to 16 µg/mL	–	–	–
CC[C@H]1CN(CC)C(=O)C(=O)N1C(=O)NC(C(=O)N[C@H]1Cc2cccc(C(=O)O)c2OB1O)c1ncc(O)cc1F (stereo partly drawn) [Example 218, (3R)-3-(2-((S)-4,6-diethyl-2,3-dioxopiperazine-1-carboxamido)-2-(3-fluoro-5-hydroxypyridin-2-yl)acetamido)-2-hydroxy-3,4-dihydro-2H-benzo[e][1,2]oxaborinine-8-carboxylic acid]	> 128 µg/mL	0.25 to 0.5 µg/mL (≈ 0.438 to 0.875 µM)	< 30 µM	0.25 to 0.5 µg/mL (≈ 0.438 to 0.875 µM)	16 to 32 µg/mL (≈ 28 to 56 µM)	–	–	32 to 64 µg/mL	–	–	–
C[C@H]1CN(CCO)C(=O)C(=O)N1C(=O)NC(C(=O)N[C@H]1Cc2cccc(C(=O)O)c2OB1O)c1ccc(O)c(O)c1Cl (stereo partly drawn) [Example 224, (3R)-3-(2-(2-chloro-3,4-dihydroxyphenyl)-2-((S)-4-(2-hydroxyethyl)-6-methyl-2,3-dioxopiperazine-1-carboxamido)acetamido)-2-hydroxy-3,4-dihydro-2H-benzo[e][1,2]oxaborinine-8-carboxylic acid]	2 to 4 µg/mL	4 to 8 µg/mL (≈ 6.61 to 13.2 µM)	–	1 to 2 µg/mL (≈ 1.65 to 3.31 µM)	> 64 µg/mL	–	30 to 500 µM	2 to 4 µg/mL	–	–	–
NCCN1CCN(C(=O)N[C@@H](C(=O)N[C@H]2Cc3cccc(C(=O)O)c3OB2O)c2ncc(O)cc2F)C(=O)C1=O [Example 225, (R)-3-((R)-2-(4-(2-aminoethyl)-2,3-dioxopiperazine-1-carboxamido)-2-(3-fluoro-5-hydroxypyridin-2-yl)acetamido)-2-hydroxy-3,4-dihydro-2H-benzo[e][1,2]oxaborinine-8-carboxylic acid]	32 to 64 µg/mL	0.25 to 0.5 µg/mL (≈ 0.448 to 0.896 µM)	< 30 µM	0.25 to 0.5 µg/mL (≈ 0.448 to 0.896 µM)	4 to 8 µg/mL (≈ 7.16 to 14.3 µM)	–	–	8 to 16 µg/mL	–	–	–
NCCN1CCN(C(=O)N[C@@H](C(=O)N[C@H]2Cc3ccc(F)c(C(=O)O)c3OB2O)c2ccc(O)c(O)c2Cl)C(=O)C1=O [Example 227, (R)-3-((R)-2-(4-(2-aminoethyl)-2,3-dioxopiperazine-1-carboxamido)-2-(2-chloro-3,4-dihydroxyphenyl)acetamido)-7-fluoro-2-hydroxy-3,4-dihydro-2H-benzo[e][1,2]oxaborinine-8-carboxylic acid]	0.5 to 1 µg/mL	1 to 2 µg/mL (≈ 1.65 to 3.29 µM)	–	1 to 2 µg/mL (≈ 1.65 to 3.29 µM)	4 to 8 µg/mL (≈ 6.58 to 13.2 µM)	–	30 to 500 µM	0.5 to 1 µg/mL	–	–	–
CC(=O)NCCN1CCN(C(=O)NC(C(=O)N[C@H]2Cc3cccc(C(=O)O)c3OB2O)c2ccc(O)c(O)c2Cl)C(=O)C1=O (stereo partly drawn) [Example 228, (3R)-3-(2-(4-(2-acetamidoethyl)-2,3-dioxopiperazine-1-carboxamido)-2-(2-chloro-3,4-dihydroxyphenyl)acetamido)-2-hydroxy-3,4-dihydro-2H-benzo[e][1,2]oxaborinine-8-carboxylic acid]	2 to 4 µg/mL	4 to 8 µg/mL (≈ 6.33 to 12.7 µM)	–	1 to 2 µg/mL (≈ 1.58 to 3.17 µM)	> 64 µg/mL	–	30 to 500 µM	8 to 16 µg/mL	–	–	–
CS(=O)(=O)NCCN1CCN(C(=O)NC(C(=O)N[C@H]2Cc3cccc(C(=O)O)c3OB2O)c2ccc(O)c(O)c2Cl)C(=O)C1=O (stereo partly drawn) [Example 229, (3R)-3-(2-(2-chloro-3,4-dihydroxyphenyl)-2-(4-(2-(methylsulfonamido)ethyl)-2,3-dioxopiperazine-1-carboxamido)acetamido)-2-hydroxy-3,4-dihydro-2H-benzo[e][1,2]oxaborinine-8-carboxylic acid]	2 to 4 µg/mL	4 to 8 µg/mL (≈ 5.99 to 12 µM)	< 30 µM	4 to 8 µg/mL (≈ 5.99 to 12 µM)	> 64 µg/mL	–	–	8 to 16 µg/mL	–	–	–
NCCN1CCN(C(=O)N[C@@H](C(=O)N[C@H]2Cc3ccc(F)c(C(=O)O)c3OB2O)c2ncc(O)cc2F)C(=O)C1=O [Example 230, (R)-3-((R)-2-(4-(2-aminoethyl)-2,3-dioxopiperazine-1-carboxamido)-2-(3-fluoro-5-hydroxypyridin-2-yl)acetamido)-7-fluoro-2-hydroxy-3,4-dihydro-2H-benzo[e][1,2]oxaborinine-8-carboxylic acid]	32 to 64 µg/mL	0.25 to 0.5 µg/mL (≈ 0.434 to 0.868 µM)	< 30 µM	1 to 2 µg/mL (≈ 1.74 to 3.47 µM)	4 to 8 µg/mL (≈ 6.94 to 13.9 µM)	–	–	8 to 16 µg/mL	–	–	–
NCCCN1CCN(C(=O)NC(C(=O)N[C@H]2Cc3cccc(C(=O)O)c3OB2O)c2ccc(O)c(O)c2Cl)C(=O)C1=O (stereo partly drawn) [Example 233, (3R)-3-(2-(4-(3-aminopropyl)-2,3-dioxopiperazine-1-carboxamido)-2-(2-chloro-3,4-dihydroxyphenyl)acetamido)-2-hydroxy-3,4-dihydro-2H-benzo[e][1,2]oxaborinine-8-carboxylic acid]	2 to 4 µg/mL	4 to 8 µg/mL (≈ 6.62 to 13.2 µM)	–	1 to 2 µg/mL (≈ 1.66 to 3.31 µM)	16 to 32 µg/mL (≈ 26.5 to 53 µM)	–	30 to 500 µM	8 to 16 µg/mL	–	–	–
CCN1C[C@H](CO)N(C(=O)NC(C(=O)N[C@H]2Cc3cccc(C(=O)O)c3OB2O)c2ncc(O)cc2F)C(=O)C1=O (stereo partly drawn) [Example 234, (3R)-3-(2-((R)-4-ethyl-6-(hydroxymethyl)-2,3-dioxopiperazine-1-carboxamido)-2-(3-fluoro-5-hydroxypyridin-2-yl)acetamido)-2-hydroxy-3,4-dihydro-2H-benzo[e][1,2]oxaborinine-8-carboxylic acid]	> 128 µg/mL	–	< 30 µM	–	–	> 128 µg/mL	–	–	0.25 to 0.5 µg/mL (≈ 0.436 to 0.872 µM)	0.25 to 0.5 µg/mL (≈ 0.436 to 0.872 µM)	16 to 32 µg/mL (≈ 27.9 to 55.8 µM)
